Source: patent US10316017B2, “COT modulators and methods of use thereof” (Gilead Sciences, Inc., priority 2015, dated 2019)

Experiments:
[1] = tested on: TNFα production in LPS-stimulated human monocytes; assay: Cot Monocyte TNFα Cell Based Assay; conditions: Homo sapiens, Monocyte, TNFα in LPS-stimulated human monocytes; read-out: EC50 TNF
Summary of the method: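 Human monocytes (5,000 cells/well) pretreated with compound for 1 hour at 37° C (0.5% DMSO), then stimulated with 50 pg/ml LPS for 4 hours. Total TNFα measured by TR-FRET after overnight antibody incubation at room temp, expressed as percent of control between unstimulated and stimulated cells.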

[2] = molecular target: T1, human Cot catalytic domain (30-397 amino acids) (Homo sapiens, UniProt P41279); assay: High Throughput Cot Biochemical Assay (KinEASE TR-FRET); conditions: Cot biochemical HTRF (KinEASE TR-FRET) assay; read-out: IC50 HTRF
T1 construct: Purified recombinant human Cot catalytic domain (30-397 amino acids) was purchased from Cama Biosciences; purchased Cama Biosciences (so in the source)
Summary of the method: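 Recombinant human Cot catalytic domain (aa 30-397), 5 nM, with 1 μM STK3 peptide and 400 μM ATP in MOPS pH 7.0 buffer with MgOAc, DTT, BSA, NP-40, glycerol, 0.1% DMSO. Phosphorylated XL665-peptide detected by Eu-[…] antibody TR-FRET.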

T1 sequence (P41279 30-397): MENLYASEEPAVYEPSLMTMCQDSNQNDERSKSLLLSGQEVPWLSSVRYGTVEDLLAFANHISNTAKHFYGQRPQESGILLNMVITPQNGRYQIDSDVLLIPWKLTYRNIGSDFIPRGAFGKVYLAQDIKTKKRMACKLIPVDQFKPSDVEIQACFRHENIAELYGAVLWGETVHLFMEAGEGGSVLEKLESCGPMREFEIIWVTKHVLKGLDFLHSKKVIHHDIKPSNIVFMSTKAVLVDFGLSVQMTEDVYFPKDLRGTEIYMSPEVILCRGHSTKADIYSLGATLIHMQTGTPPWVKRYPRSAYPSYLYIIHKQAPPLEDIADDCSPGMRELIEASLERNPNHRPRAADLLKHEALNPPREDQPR

| SMILES | EC50 [1] | IC50 [2] |
| --- | --- | --- |
| CC1(Cn2cc([C@@H](Nc3cc(Cl)c4ncc(C#N)c(Nc5ccc(F)c(Cl)c5)c4c3)c3ccc(F)cc3)nn2)COC1 [Example 808, (S)-8-chloro-4-((3-chloro-4-fluorophenyl)amino)-6-(((4-fluorophenyl)(1-((3-methyloxetan-3-yl)methyl)-1H-1,2,3-triazol-4-yl)methyl)amino)quinoline-3-carbonitrile] | 434 nM | 26 nM |
| N#Cc1cnc2c(Cl)cc(N[C@@H](c3ccc(F)cc3)c3c[nH]nn3)cc2c1Nc1ccc(F)c(Cl)c1 [Example 819, (S)-8-chloro-4-((3-chloro-4-fluorophenyl)amino)-6-(((4-fluorophenyl)(1H-1,2,3-triazol-4-yl)methyl)amino)quinoline-3-carbonitrile] | 426 nM | 22 nM |
| CC(C)(C)N1CCC(n2cc([C@@H](Nc3cc(Cl)c4ncc(C#N)c(Nc5ccc(F)c(Cl)c5)c4c3)c3ccccc3)nn2)CC1 [Example 831, (S)-6-(((1-(1-(tert-butyl)piperidin-4-yl)-1H-1,2,3-triazol-4-yl)(phenyl)methyl)amino)-8-chloro-4-((3-chloro-4-fluorophenyl)amino)quinoline-3-carbonitrile] | 381 nM | 10 nM |
| Cn1cc([C@@H](Nc2cc(Cl)c3ncc(C#N)c(Nc4ccc(F)c(Cl)c4)c3c2)c2cccc(CN3CCCC3)c2)nn1 [Example 841, (S)-8-chloro-4-((3-chloro-4-fluorophenyl)amino)-6-(((1-methyl-1H-1,2,3-triazol-4-yl)(3-(pyrrolidin-1-ylmethyl)phenyl)methyl)amino) quinoline-3-carbonitrile] | 141 nM | 8 nM |
| Cn1cc([C@H](Nc2cc(Cl)c3ncc(C#N)c(Nc4ccc(F)c(Cl)c4)c3c2)c2cccc(CN3CCCC3)c2)nn1 [Example 842, (R)-8-chloro-4-((3-chloro-4-fluorophenyl)amino)-6-(((1-methyl-1H-1,2,3-triazol-4-yl)(3-(pyrrolidin-1-ylmethyl)phenyl)methyl)amino) quinoline-3-carbonitrile] | 22100 nM | 998 nM |
| Cn1ccnc1C(Nc1cc(Cl)c2ncc(C#N)c(Nc3ccc(F)c(Cl)c3)c2c1)c1ccc(F)cc1 (stereo not shown) [Example 847, 8-chloro-4-((3-chloro-4-fluorophenyl)amino)-6-(((4-fluorophenyl)(1-methyl-1H-imidazol-2-yl)methyl)amino)quinoline-3-carbonitrile] | 7860 nM | 366 nM |
| Cn1cc(C(Nc2cc(Cl)c3ncc(C#N)c(Nc4ccc(F)c(Cl)c4)c3c2)c2ccc(F)cc2)cn1 (stereo not shown) [Example 853, 8-chloro-4-((3-chloro-4-fluorophenyl)amino)-6-(((4-fluorophenyl)(1-methyl-1H-pyrazol-4-yl)methyl)amino)quinoline-3-carbonitrile] | > 1000 nM | 6300 nM |
| Cn1cnnc1C(Nc1cc(Cl)c2ncc(C#N)c(Nc3ccc(F)c(Cl)c3)c2c1)c1ccc(F)cc1 (stereo not shown) [Example 854, 8-chloro-4-((3-chloro-4-fluorophenyl)amino)-6-(((4-fluorophenyl)(4-methyl-4H-1,2,4-triazol-3-yl)methyl)amino)quinoline-3-carbonitrile] | > 10000 nM | 469 nM |
| Cn1cnc(C(Nc2cc(Cl)c3ncc(C#N)c(Nc4ccc(F)c(Cl)c4)c3c2)c2ccc(F)c(F)c2)c1 (stereo not shown) [Example 869, 8-chloro-4-((3-chloro-4-fluorophenyl)amino)-6-(((3,4-difluorophenyl)(1-methyl-1H-imidazol-4-yl)methyl)amino)quinoline-3-carbonitrile] | 2760 nM | 125 nM |
| CCN1CCC(n2cc(C(Nc3cc(Cl)c4ncc(C#N)c(Nc5ccc(F)c(Cl)c5)c4c3)c3ccc(F)cc3C)nn2)CC1 (stereo not shown) [Example 885, 8-chloro-4-((3-chloro-4-fluorophenyl)amino)-6-(((1-(1-ethylpiperidin-4-yl)-1H-1,2,3-triazol-4-yl)(4-fluoro-2-methylphenyl)methyl)amino) quinoline-3-carbonitrile] | 287 nM | 9 nM |

Further lines, results first:

| EC50 [1] | IC50 [2] | SMILES |
| --- | --- | --- |
| 116 nM | 6 nM | CCN1CCC(n2cc([C@@H](Nc3cc(F)c4ncc(C#N)c(Nc5ccc(F)c(Cl)c5)c4c3)c3ccc(Cl)cc3)nn2)CC1 [Example 813, (S)-4-((3-chloro-4-fluorophenyl)amino)-6-(((4-chlorophenyl)(1-(1-ethylpiperidin-4-yl)-1H-1,2,3-triazol-4-yl)methyl)amino)-8-fluoroquinoline-3-carbonitrile] |
| 704 nM | 10 nM | N#Cc1cnc2c(F)cc(N[C@@H](c3ccc(Cl)cc3)c3cn(C4CCNCC4)nn3)cc2c1Nc1ccc(F)c(Cl)c1 [Example 814, (S)-4-((3-chloro-4-fluorophenyl)amino)-6-(((4-chlorophenyl)(1-(piperidin-4-yl)-1H-1,2,3-triazol-4-yl)methyl)amino)-8-fluoroquinoline-3-carbonitrile] |
| 450 nM | 58 nM | CN(C)C(=O)CN1CCC(n2cc([C@@H](Nc3cc(Cl)c4ncc(C#N)c(Nc5ccc(F)c(Cl)c5)c4c3)c3ccc(F)cc3)nn2)CC1 [Example 824, (S)-2-(4-(4-(((8-chloro-4-((3-chloro-4-fluorophenyl)amino)-3-cyanoquinolin-6-yl)amino)(4-fluorophenyl)methyl)-1H-1,2,3-triazol-1-yl)piperidin-1-yl)-N,N-dimethylacetamide] |
| 150 nM | 4 nM | CC(C)N1CCC(n2cc([C@@H](Nc3cc(Cl)c4ncc(C#N)c(Nc5ccc(F)c(Cl)c5)c4c3)c3ccc(F)cc3)nn2)CC1 [Example 825, (S)-8-chloro-4-((3-chloro-4-fluorophenyl)amino)-6-(((4-fluorophenyl)(1-(1-isopropylpiperidin-4-yl)-1H-1,2,3-triazol-4-yl)methyl)amino)quinoline-3-carbonitrile] |
| 1150 nM | 297 nM | N#Cc1cnc2c(Cl)cc(N[C@@H](c3ccc(F)cc3)c3cn(C4CCN(CC(F)(F)F)CC4)nn3)cc2c1Nc1ccc(F)c(Cl)c1 [Example 828, (S)-8-chloro-4-((3-chloro-4-fluorophenyl)amino)-6-(((4-fluorophenyl)(1-(1-(2,2,2-trifluoroethyl)piperidin-4-yl)-1H-1,2,3-triazol-4-yl)methyl)amino)quinoline-3-carbonitrile] |
| 241 nM | 8 nM | CC(C)(C)N1CCC(n2cc([C@@H](Nc3cc(Cl)c4ncc(C#N)c(Nc5ccc(F)c(Cl)c5)c4c3)c3ccc(F)cc3)nn2)CC1 [Example 836, (S)-6-(((1-(1-(tert-butyl)piperidin-4-yl)-1H-1,2,3-triazol-4-yl)(4-fluorophenyl)methyl)amino)-8-chloro-4-((3-chloro-4-fluorophenyl)amino)quinoline-3-carbonitrile] |
| 6280 nM | 687 nM | CCN1CCC(n2cc([C@H](Nc3cc(Cl)c4ncc(C#N)c(Nc5ccc(F)c(Cl)c5)c4c3)c3ccc(F)cc3)nn2)CC1 [Example 849, (R)-8-chloro-4-((3-chloro-4-fluorophenyl)amino)-6-(((1-(1-ethylpiperidin-4-yl)-1H-1,2,3-triazol-4-yl)(4-fluorophenyl)methyl)amino) quinoline-3-carbonitrile] |
| 99 nM | 8 nM | CCN1CCC(n2cc([C@@H](Nc3cc(Cl)c4ncc(C#N)c(Nc5ccc(F)c(Cl)c5)c4c3)c3ccc(Cl)cc3)nn2)CC1 [Example 858, (S)-8-chloro-4-((3-chloro-4-fluorophenyl)amino)-6-(((4-chlorophenyl)(1-(1-ethylpiperidin-4-yl)-1H-1,2,3-triazol-4-yl)methyl)amino)quinoline-3-carbonitrile] |
| 533 nM | 12 nM | N#Cc1cnc2c(Cl)cc(N[C@@H](c3ccc(Cl)cc3)c3cn(C4CCNCC4)nn3)cc2c1Nc1ccc(F)c(Cl)c1 [Example 859, (S)-8-chloro-4-((3-chloro-4-fluorophenyl)amino)-6-(((4-chlorophenyl)(1-(piperidin-4-yl)-1H-1,2,3-triazol-4-yl)methyl)amino)quinoline-3-carbonitrile] |
| 1310 nM | 41 nM | N#Cc1cnc2c(Cl)cc(NC(c3ccc(Cl)cc3)c3cn(C4CNC4)nn3)cc2c1Nc1ccc(F)c(Cl)c1 (stereo not shown) [Example 872, 6-(((1-(azetidin-3-yl)-1H-1,2,3-triazol-4-yl)(4-chlorophenyl)methyl)amino)-8-chloro-4-((3-chloro-4-fluorophenyl)amino)quinoline-3-carbonitrile] |
| 673 nM | 39 nM | Cn1cc(C(Nc2cc(Cl)c3ncc(C#N)c(Nc4ccc(F)c(Cl)c4)c3c2)c2ccc(Cl)cc2)nn1 (stereo not shown) [Example 881, 8-chloro-4-((3-chloro-4-fluorophenyl)amino)-6-(((4-chlorophenyl)(1-methyl-1H-1,2,3-triazol-4-yl)methyl)amino)quinoline-3-carbonitrile] |
| 321 nM | 20 nM | Cn1cc(C(Nc2cc(Cl)c3ncc(C#N)c(Nc4ccc(F)c(Cl)c4)c3c2)c2ccc(F)cc2)nn1 (stereo not shown) [Example 882, 8-chloro-4-((3-chloro-4-fluorophenyl)amino)-6-(((4-fluorophenyl)(1-methyl-1H-1,2,3-triazol-4-yl)methyl)amino)quinoline-3-carbonitrile] |
| 466 nM | 11 nM | Cc1cc(F)ccc1C(Nc1cc(Cl)c2ncc(C#N)c(Nc3ccc(F)c(Cl)c3)c2c1)c1cn(C2CCNCC2)nn1 (stereo not shown) [Example 884, 8-chloro-4-((3-chloro-4-fluorophenyl)amino)-6-(((4-fluoro-2-methylphenyl) (1-(piperidin-4-yl)-1H-1,2,3-triazol-4-yl)methyl)amino)quinoline-3-carbonitrile] |
